# Assay results published in patent US6177253A, “Screening methods for the identification of anti-HIV compounds employing a cyclosporine-specific monoclonal antibody that cross-reacts with HIV-1 p24” (priority 1998, dated 2001).
# Entries after “also recorded” stand apart in the source; their conditions may differ.
# Tests used:
# R575 = assay: Inhibition RIA of [3H]CsA binding to rabbit anti-cyclosporine antibodies R575; conditions: for affinity group for the rabbit antibodies: inhibition RIA, in words; for IC50: read-out: IC50 = Concentration for 50% inhibition, inhibition of [3H] dihydro CsA binding to rabbit antibody R575
# Method: Serum antibodies were detected by a modification of the published radioimmunoassay (5, 12). […] Binding by diluted preimmune serum was used as a control. Free and bound ligand were separated with charcoal supplied by Sandoz according to their procedure. […] The cyclosporin derivatives were dissolved in 100% ethanol at a concentration of 5.0 mg/ml, stored at -20° C., and diluted to final concentrations of 0.27 nM to 2.7 μM in Sandoz buffer B for the inhibition experiments.
# [1] = single break in a peptide bond by N O shift; cited from earlier work
Compound,affinity group for the rabbit antibodies (R575),affinity group for the rabbit antibodies (R575; listed as CSC),IC50 (R575) [nM],inhibition of [^3 H] CsA binding obtainable (R575; maximal inhibition),biological activity [1]
C/C=C/C[C@@H](C)[C@@H](O)[C@H]1C(=O)N[C@@H]([C@@H](C)O)C(=O)N(C)CC(=O)N(C)[C@@H](CC(C)C)C(=O)N[C@@H](C(C)C)C(=O)N(C)[C@@H](CC(C)C)C(=O)N[C@@H](C)C(=O)N[C@H](C)C(=O)N(C)[C@@H](CC(C)C)C(=O)N(C)[C@@H](CC(C)C)C(=O)N(C)[C@@H](C(C)C)C(=O)N1C [CsC],Moderate affinities,moderate affinities,11.5,–,–
C/C=C/C[C@@H](C)[C@@H](OC(C)=O)[C@H]1C(=O)N[C@@H](CC)C(=O)N(C)CC(=O)N(C)[C@@H](CC(C)C)C(=O)N[C@@H](C(C)C)C(=O)N(C)[C@@H](CC(C)C)C(=O)N[C@@H](C)C(=O)N[C@H](C)C(=O)N(C)[C@@H](CC(C)C)C(=O)N(C)[C@@H](CC(C)C)C(=O)N(C)[C@@H](C(C)C)C(=O)N1C [compound 243],high affinity; also recorded: bind best,–,6,–,–
C/C=C/C[C@@H](C)[C@@H](O)[C@H]1C(=O)N[C@@H](CC)C(=O)N(C)CC(=O)N(C)[C@@H](CC(C)C)C(=O)N[C@@H](C(C)C)C(=O)N(C)[C@@H](CC(C)C)C(=O)N[C@@H](C)C(=O)N[C@H](COC(C)(C)C)C(=O)N(C)[C@@H](CC(C)C)C(=O)N(C)[C@@H](CC(C)C)C(=O)N(C)[C@@H](C(C)C)C(=O)N1C [compound 717],inhibits very poorly; also recorded: low affinity,–,2700,more than 50%,–
C/C=C/C[C@@H](C)[C@@H](O)[C@H]1C(=O)N[C@@H]([C@@H](C)OC(C)=O)C(=O)N(C)CC(=O)N(C)[C@@H](CC(C)C)C(=O)N[C@@H](C(C)C)C(=O)N(C)[C@@H](CC(C)C)C(=O)N[C@@H](C)C(=O)N[C@H](C)C(=O)N(C)[C@@H](CC(C)C)C(=O)N(C)[C@@H](CC(C)C)C(=O)N(C)[C@@H](C(C)C)C(=O)N1C [compound 665],high affinity; also recorded: bind best,–,4.8,–,–
C/C=C/C[C@@H](C)[C@H]1OC(=O)[C@H](C(C)C)N(C)C(=O)[C@H](CC(C)C)N(C)C(=O)[C@H](CC(C)C)N(C)C(=O)[C@@H](C)NC(=O)[C@H](C)NC(=O)[C@H](CC(C)C)N(C)C(=O)[C@H](C(C)C)NC(=O)[C@H](CC(C)C)N(C)C(=O)CN(C)C(=O)[C@H](CC)NC(=O)[C@H]1NC [iso-CsA],–,–,–,–,loss of activity

# Continued, in another order:
affinity group for the rabbit antibodies (R575),affinity group for the rabbit antibodies (R575; listed as CSC),IC50 (R575) [nM],inhibition of [^3 H] CsA binding obtainable (R575; maximal inhibition),Compound,biological activity [1]
Moderate affinities,–,12,–,C/C=C/C[C@@H](C)[C@@H](O)[C@H]1C(=O)N[C@@H](CC)C(=O)N2CCC[C@H]2C(=O)N(C)[C@@H](CC(C)C)C(=O)N[C@@H](C(C)C)C(=O)N(C)[C@@H](CC(C)C)C(=O)N[C@@H](C)C(=O)N[C@H](C)C(=O)N(C)[C@@H](CC(C)C)C(=O)N(C)[C@@H](CC(C)C)C(=O)N(C)[C@@H](C(C)C)C(=O)N1C [compound 582],–
high affinity; also recorded: bind best,–,4.3,–,C/C=C/C[C@@H](C)[C@@H](O)[C@H]1C(=O)N[C@@H](C(C)C)C(=O)N(C)CC(=O)N(C)[C@@H](CC(C)C)C(=O)N[C@@H](C(C)C)C(=O)N(C)[C@@H](CC(C)C)C(=O)N[C@@H](C)C(=O)N[C@H](C)C(=O)N(C)[C@@H](CC(C)C)C(=O)N(C)[C@@H](CC(C)C)C(=O)N(C)[C@@H](C(C)C)C(=O)N1C [CsD],–
